Experimental data published in US5616615A, “Enaminone esters” (priority 1995, dated 1997).
Where two headings read alike, the source gives them in different places.

How the values were obtained:
[1] = tested on: Maximal electroshock seizures; test: MES maximal electroshock seizure test, mice ip; format: in vivo; parameters: TPE (time of peak effect), activity: unit not given here; conditions: ip; for responders at 100 mg/kg: read-out: MES, animals protected/tested (converted); for responders at 300 mg/kg: read-out: MES, animals protected/tested
Method: Three tests were performed:
1. MES--Electroshock Seizure Test
(§1) Maximal electroshock seizures are elicited with a 60-cycle alternating current of 50 mA intensity (5-7 times that necessary to elicit minimal electroshock seizures) delivered via corneal electrodes for 0.2 seconds. A drop of 0.9% saline is instilled in the eye prior to application of the electrodes in order to […].

strychnine = test: Phase V quantification against strychnine; format: in vivo; conditions: dose not given
Method: (§2) Both 12 and 27 were evaluated in Phase V of the ADD Program evaluation scheme. Phase V provides quantification against bicuculline, picrotoxin, pentylenetetrazol, and strychnine. This screen provides information on the mechanism of action of the anticonvulsant activity. Bicuculline, picrotoxin, and strychnine correspond to GABA inhibitory function, chloride channel inhibition and inhibition by glycine respectively.

[2] = tested on: bicuculline, picrotoxin, pentylenetetrazol, and strychnine; conditions: in vivo
Method: as §2

pentylenetetrazol = test: Phase V quantification against pentylenetetrazol; format: in vivo; conditions: dose not given
Method: as §2

Neurotoxicity, rats ip = conditions: 100 mg/kg
Method: The rotorod test is used to elevate neurotoxicity. The animal is placed on a 1 inch diameter knurled plastic rod rotating at 6 rpm. […] Neurologic toxicity is defined as the failure of the animal to remain on the rod for 1 minute and the results are expressed as the number of animals protected/the number of animals tested.
The toxicity evaluation for the commercial agents as previously indicated was based on the onset of ataxia.

Kinetic hydrolysis = format: physicochemical; conditions: for average absorbance value: over incubation periods
Method: This solution was 4.0×10^-5 M. Phosphate buffer, pH 7.4 and water were used in this study. All experiments were performed in triplicate. A volume of the stock ethanol solution of 1 (0.2 mL), was diluted with the appropriate solvent to make 1 mL of solution. Each mixture was sealed in a Teflon capped reaction vial and incubated at 37° C. for the same time periods as indicated in the ip rat toxicity study (Tables X and X-A). After each time period, the vials were removed from the incubator and quenched at -80° C. until ready for analysis. Initial scan (t=O h) indicated a λ max at 311 nm for 27. […] After all samples were incubated, the UV spectra was taken from 190-500 nm using the respective solvent as a blank. The results were plotted in terms of absorbance v, time of incubation and the absorbance values.

seizures = test: Anticonvulsant evaluation (ASP phase I / overall); format: in vivo, mice
In short: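 Male Carworth Farms #1 mice; maximal electroshock seizures elicited by 60-cycle AC, 50 mA, 0.2 s via corneal electrodes after a drop of 0.9% saline in the eye. Animals observed for 30 minutes.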

picrotoxin = test: Phase V quantification against picrotoxin; format: in vivo; conditions: dose not given
Method: as §2

adenosine uptake = adenosine uptake assay
bicuculline = test: Phase V quantification against bicuculline; format: in vivo; conditions: dose not given
Method: as §2

[3] = tested on: Maximal electroshock seizures; test: Phase VI oral MES test, rats; format: in vivo; conditions: oral; for responders at 6 mg/kg / responders at 10 mg/kg: Rattus norvegicus, read-out: MES, animals protected/tested (converted)
Excerpt: as §1
(§3) This oral screen is designated as phase VI.

in vivo [4] = conditions: rat, po
Excerpt: as §3

in vivo [5] = conditions: mouse, in vivo, ip
benzodiazepine receptor = benzodiazepine receptor binding evaluation
GABA receptor = GABA receptor binding test
[6] = tested on: Amygdala Kindled Seizures; test: Suppression of amygdala kindled seizures; format: in vivo
Method: Compounds 12 and 27 were evaluated in our laboratory for suppression of amygdala kindled seizures.

Corneal Kindled rats = test: Corneal kindling; format: in vivo; conditions: for Ave. seizure score: ranking 0-5; for ED50: Rattus norvegicus
Method: Corneal kindling studies were performed in our laboratories on 12 and 27 and the results are shown in Tables XI and XII and FIGS. 1A and 1B. Comparative data for the commercial products are included. Seizures evoked in electroshock-kindled rats provide a suitable model consistent with complex partial seizures evolving into generalized motor seizures in humans.
^a Rats kindled to Stage 5. Endpoint was reduction from Stage 5 to […]

[7] = tested on: Subcutaneous Pentylenetetrazol seizure; test: sc Met subcutaneous pentylenetetrazol (Metrazol) seizure test, mice; format: in vivo; conditions: Mus musculus, sc, read-out: scMet, animals protected/tested (converted)

In the case of `COC(=O)C1C(=O)C=C(Nc2ccc(Cl)cc2)CC1C` (centres unmarked) [Compound 27], the responders at 100 mg/kg ([1]; Mus musculus, 0.5 h, 30 min) is reported as 100%, the responders at 300 mg/kg ([1]; Mus musculus, 0.5 h, 30 min) is reported as 100% and the responders at 100 mg/kg ([1]; Mus musculus, 4 h, 4 h) is reported as 0%. For the same compound, the responders at 300 mg/kg ([1]; Mus musculus, 4 h, 4 h) was 100%, the ED50 ([1]; Mus musculus, Phase II, time of peak effect) was 26.2 mg/kg and the “TPE (time of peak effect), activity” value ([1]; Phase II) was 0.5. For the same compound, the “protection against strychnine” value (strychnine) was “uniformly inactive”, the “threshold to chemostimulants” value [2] was “did not lower the threshold to these chemostimulants” and the “protection against pentylenetetrazol” value (pentylenetetrazol) was “uniformly inactive”. For the same compound, the animals displaying neurotoxicity/tested (Neurotoxicity, rats ip; 0.25 h (Table X-A)) was 0/8, the animals displaying neurotoxicity/tested (Neurotoxicity, rats ip; 0.50 h (Table X-A)) was 3/8 and the animals displaying neurotoxicity/tested (Neurotoxicity, rats ip; 1.00 h (Table X-A)) was 6/8. The animals displaying neurotoxicity/tested (Neurotoxicity, rats ip; 2.00 h (Table X-A)) was 7/8, the animals displaying neurotoxicity/tested (Neurotoxicity, rats ip; 4.00 h (Table X-A)) was 2/8 and the animals displaying neurotoxicity/tested (Neurotoxicity, rats ip; 6.00 h (Table X-A)) was 1/8. For the same compound, the animals displaying neurotoxicity/tested (Neurotoxicity, rats ip; 8.00 h (Table X-A)) was 0/8, the animals displaying neurotoxicity/tested (Neurotoxicity, rats ip; 24.00 h (Table X-A)) was 2/8 and the average absorbance value (Kinetic hydrolysis; aqueous media, 37° C.) was 0.929 (range 0.789-1.069). The average absorbance value (Kinetic hydrolysis; pH 7.4 buffer, 37° C.) was 1.112 (range 0.983-1.240), the “change of wavelength (λ max) on incubation” value (Kinetic hydrolysis; water and pH 7.4 buffer, 37° C.) was “the wavelength did not change from 311 nm” and the “significance of absorbance differences” value (Kinetic hydrolysis; water vs pH 7.4 buffer) was “not significant”. The “activity compared with benzylamine counterpart” value (seizures; 27 vs 16, 28 vs 17, 29 vs 20) was “activity is enhanced in all cases”, the minimal effective dose (seizures; Mus musculus, ip, Phase I, read-out: ASP Classification) was less than 100 mg/kg and the “anticonvulsant activity” value (seizures; mouse, in vivo) was “anticonvulsant activity was observed”. For the same compound, the “protection against picrotoxin” value (picrotoxin) was “uniformly inactive”, the “adenosine uptake” value (adenosine uptake) was “inactive” and the “protection against bicuculline” value (bicuculline) was “uniformly inactive”. For the same compound, the ED50 ([3]; Phase VI, rat) was 5.79 mg/kg, the responders at 6 mg/kg ([3]; 0.5 h, 0.50 h) was 75% and the responders at 10 mg/kg ([3]; 0.5 h, 0.50 h) was 100%. It also gave a responders at 6 mg/kg ([3]; 1.00 h) of 50%, a responders at 6 mg/kg ([3]; 2.00 h) of 25% and a responders at 10 mg/kg ([3]; 0.25 h) of 75%. The responders at 10 mg/kg ([3]; 1.00 h) was 100%, the responders at 10 mg/kg ([3]; 2.00 h) was 100% and the responders at 10 mg/kg ([3]; 4.00 h) was 75%. The TD50 (in vivo [4]) was greater than 380 mg/kg, the selectivity ratio (in vivo [4]) was 65.6 and the “Tox, animals toxic/tested” value (in vivo [4]; 6 mg/kg) was 0/4. The “Tox, animals toxic/tested” value (in vivo [4]; 10 mg/kg) was 0/4, the TD50 (in vivo [5]) was 255 mg/kg and the “TPE (time of peak effect), toxicity” value (in vivo [5]) was 2. The selectivity ratio (in vivo [5]) was 9.72, the “benzodiazepine receptor binding” value (benzodiazepine receptor) was “inactive” and the “GABA receptor binding” value (GABA receptor) was “inactive”. The “Afterdischarge Amygdala: Duration” value ([6]; 350 mg/kg) was 79.8 s, the “Afterdischarge Cortex: Duration” value ([6]; 350 mg/kg) was 79.6 s and the “Afterdischarge Cortex: Latency” value ([6]; 350 mg/kg) was 2.7 s. The “Behavioral Seizure: Duration” value ([6]; 350 mg/kg) was 82.3 s, the “Behavioral Seizure: Latency” value ([6]; 350 mg/kg) was 2.1 s and the “Forelimb Clonus: Duration” value ([6]; 350 mg/kg) was 45.3 s. The “Forelimb Clonus: Latency” value ([6]; 350 mg/kg) was 9.2 s, the “Seizure Stage” value ([6]; 350 mg/kg) was 5.0 and the “suppression of amygdala kindled seizures” value ([6]; in vivo) was “no significant activity”. The “% Reduction” value (Corneal Kindled rats; 20 mg/kg) was 40%, the Ave. seizure score (Corneal Kindled rats; 20 mg/kg) was 3.0 and the “% Reduction” value (Corneal Kindled rats; 30 mg/kg) was 40%. The Ave. seizure score (Corneal Kindled rats; 30 mg/kg) was 3.0, the “% Reduction” value (Corneal Kindled rats; 40 mg/kg) was 49% and the Ave. seizure score (Corneal Kindled rats; 40 mg/kg) was 2.6. The “% Reduction” value (Corneal Kindled rats; 50 mg/kg) was 87%, the Ave. seizure score (Corneal Kindled rats; 50 mg/kg) was 1.7 and the ED50 (Corneal Kindled rats; po, 0.5 h, read-out: ED50 (reduction from Stage 5 to Stage 4)) was 31.2 mg/kg. It also gave an ED50 (Corneal Kindled rats; read-out: ED50, corneal kindling) of 31.2 mg/kg, a responders at 100 mg/kg ([7]; 0.5 h, 30 min) of 0% and a responders at 300 mg/kg ([7]; 0.5 h, 30 min) of 0%. The responders at 100 mg/kg ([7]; 4 h, 4 h) was 0% and the responders at 300 mg/kg ([7]; 4 h, 4 h) was 0%.
